Test results reported in patent publication US20160367556A1, “Therapeutic Agent for Ocular Disease or Prophylactic Agent for Ocular Disease” (Japan Tobacco Inc., priority 2013, published 2016).
Values joined by “and” are separate entries in the source; they are usually repeats but may differ in a detail not shown here. Equal values may be shown once. Read-outs that look alike come from different tables or passages of the source.

Columns and labels:
[1] = Neural retina concentration after intravitreal injection to rats (LC-MS); assay type: in vivo; conditions: rat, intravitreal 10 μg/eye
Experimental: (§1) Experiment 3. Ocular tissue distribution and systematic exposure of Compound A orally administered or intravitreally injected
(§2) As experimental animals, male Crl:CD <SD> rats aged 8 weeks {CHARLES RIVER LABORATORIES JAPAN, INC.} were used.
In the vitreous body of each eye of rats, Compound A dissolved or suspended in a base was injected at 10 μg/eye. At 1, 2, 4 and 24 hours after intravitreal injection, neural retina was sampled, and the concentration of Compound A in the neural retina was quantified by LC-MS. Each group included two to three rats <four to six eyeballs>.
(§3) Transition of plasma concentration of Compound A orally administered (100 mg/kg) was shown in Table 1, transition of neural retina concentration of Compound A orally administered (100 mg/kg) was shown in Table 2, and transition of neural retina concentration of Compound A intravitreally injected (10 μg/eye) was shown in Table 3.

[2] = tested on: VEGF-induced retinal vascular permeability; test: Retinal vascular permeability suppression by intravitreal injection in rat model where VEGF-induced retinal vascular permeability was increased; assay type: in vivo; conditions: intravitreal 10, 30 or 100 μg/eye mixed with rat VEGF164 400 ng/eye; vitreous protein at 24 hours; FIG. 2
Experimental: Experiment 2. Retinal vascular permeability suppression by intravitreal injection of Compound A in rat model where VEGF-induced retinal vascular permeability was increased As experimental animals, male Brown Norway rats aged 8 weeks {CHARLES RIVER LABORATORIES JAPAN, INC.} were used. A mixture of rat VEGF164 {400 ng/eye, R&D Systems, Inc.} and Compound A (10 μg/eye, 30 μg/eye or 100 μg/eye) dissolved or suspended in a base was injected into the vitreous body of each eye of rats <Compound A-administered group>. In the vitreous body of each eye of rats of a base-administered group, a mixture of rat VEGF164 and the base of the same volume as that of the Compound A-administered group was injected. As the base, an aqueous base was used. In the vitreous body of each eye of rats of a normal control group, D-PBS (-) {Sigma-Aldrich Corporation} was injected. Each group included four rats <eight eyeballs>. At 24 hours after intravitreal injection of VEGF, rats were euthanized, and the eyeballs of the rats were enucleated while avoiding contamination with blood. […] The protein concentration in the sampled vitreous body was determined by the Bradford method. The rate of suppressing an increase of the retinal vascular permeability was calculated according to the following equation X. Rate of suppressing increase of retinal vascular permeability (%)=(PB-PX)/(PB-PA)×100 [Equation X] […]

[3] = Plasma concentration after single oral administration to rats (LC-MS); assay type: in vivo; conditions: rat, oral 100 mg/kg single; for concentration at 0.5 h / concentration at 1 h / concentration at 2 h / concentration at 4 h / concentration at 6 h / concentration at 24 h: male, Crl:CD <SD>, plasma, po, 100 mg/kg
Experimental: as §1, §2
(§4) Compound A suspended in a 1% (w/v) methylcellulose aqueous solution was orally administered to rats at 100 mg/kg. At 0.5, 1, 2, 4, 6 and 24 hours after oral administration, plasma and neural retina were sampled, and the concentrations of Compound A in the plasma and in the neural retina were quantified by liquid chromatography mass spectrometry <LC-MS>.
as §3

[4] = tested on: VEGF-induced retinal vascular permeability; test: Retinal vascular permeability suppression by oral administration in rat model where VEGF-induced retinal vascular permeability was increased; assay type: in vivo; conditions: oral 10, 30 or 100 mg/kg; vitreous protein 24 hours after intravitreal rat VEGF164 400 ng/eye; FIG. 1
Experimental: Experiment 1. Retinal vascular permeability suppression by oral administration of Compound A in rat model where VEGF-induced retinal vascular permeability was increased A rat model where VEGF-induced retinal vascular permeability was increased was used to evaluate the ability of suppressing an increase of the retinal vascular permeability by Compound A. The animal model was prepared with appropriate modifications based on Non-Patent Literature 3, etc. As experimental animals, male Brown Norway rats aged 8 weeks {CHARLES RIVER LABORATORIES JAPAN, INC.} were used. Inside the vitreous body of each eye of rats, rat VEGF164 {400 ng/eye, R&D Systems, Inc.} was injected <VEGF-administered group>. Inside the vitreous body of each eye of rats in a normal control group, D-PBS (-) {Sigma-Aldrich Corporation} was intravitreally injected. Each group included four rats <eight eyeballs>. […] The protein concentration in the sampled vitreous body was determined by the Bradford method. The rate of suppressing an increase of the retinal vascular permeability was calculated according to the following equation X. Rate of suppressing increase of retinal vascular permeability (%)=(PB-PX)/(PB-PA)×100 [Equation X] […]

[5] = Neural retina concentration after single oral administration to rats (LC-MS); assay type: in vivo, rat
Experimental: as §1, §2, §4, §3

C[C@H]1CN(C(=O)CC#N)[C@]12CCN(c1ncnc3[nH]ccc13)C2 [Compound A, 3-[(3S,4R)-3-Methyl-6-(7H-pyrrolo[2,3-d]pyrimidin-4-yl)-1,6-diazaspiro[3.4]octan-1-yl]-3-oxopropanenitrile]
concentration at 1 h ([1]; male, Crl:CD <SD>, neural retina, other: intravitreal injection, 10 μg/eye, 1 hr, average, read-out: Neural retina concentration of Compound A, Average): 45000 ng/mL
concentration at 1 h ([1]; male, Crl:CD <SD>, neural retina, other: intravitreal injection, 10 μg/eye, 1 hr, individual eye, read-out: Neural retina concentration of Compound A): 39500 ng/mL
concentration at 2 h ([1]; male, Crl:CD <SD>, neural retina, other: intravitreal injection, 10 μg/eye, 2 hr, average, read-out: Neural retina concentration of Compound A, Average): 9690 ng/mL
concentration at 4 h ([1]; male, Crl:CD <SD>, neural retina, other: intravitreal injection, 10 μg/eye, 4 hr, average, read-out: Neural retina concentration of Compound A, Average): 1550 ng/mL
Neural retina concentration of Compound A ([1]; 1 hr, individual eye): 52.66 µg/mL and 45.53 µg/mL and 42.17 µg/mL
Neural retina concentration of Compound A ([1]; 2 hr, individual eye): 6.28 µg/mL and 13.49 µg/mL and 4.73 µg/mL and 12.71 µg/mL and 15.78 µg/mL and 5.13 µg/mL
Neural retina concentration of Compound A ([1]; 4 hr, individual eye): 2.07 µg/mL and 2.64 µg/mL and 0.27 µg/mL and 1.42 µg/mL and 1.66 µg/mL and 1.26 µg/mL
Neural retina concentration of Compound A ([1]; 24 hr, individual eye): BLQ (Below the lower limit of quantification (ca. 0.16 μg/g))
suppression of retinal vascular permeability [2]: suppression of retinal vascular permeability
concentration at 0.5 h ([3]; 0.5 hr, average, read-out: Plasma concentration of Compound A, Average): 6320 ng/mL
concentration at 0.5 h ([3]; 0.5 hr, individual animal, read-out: Plasma concentration of Compound A): 5810 ng/mL
concentration at 1 h ([3]; 1 hr, average, read-out: Plasma concentration of Compound A, Average): 8260 ng/mL
concentration at 1 h ([3]; 1 hr, individual animal, read-out: Plasma concentration of Compound A): 7950 ng/mL
concentration at 2 h ([3]; 2 hr, average, read-out: Plasma concentration of Compound A, Average): 6350 ng/mL
concentration at 2 h ([3]; 2 hr, individual animal, read-out: Plasma concentration of Compound A): 6520 ng/mL
concentration at 4 h ([3]; 4 hr, average, read-out: Plasma concentration of Compound A, Average): 4140 ng/mL
concentration at 4 h ([3]; 4 hr, individual animal, read-out: Plasma concentration of Compound A): 4860 ng/mL
concentration at 6 h ([3]; 6 hr, average, read-out: Plasma concentration of Compound A, Average): 4050 ng/mL
concentration at 6 h ([3]; 6 hr, individual animal, read-out: Plasma concentration of Compound A): 3040 ng/mL
concentration at 24 h ([3]; 24 hr, average, read-out: Plasma concentration of Compound A, Average): 20 ng/mL
concentration at 24 h ([3]; 24 hr, individual animal, read-out: Plasma concentration of Compound A): 30 ng/mL
Plasma concentration of Compound A ([3]; 0.5 hr, individual animal): 6.83 µg/mL
Plasma concentration of Compound A ([3]; 1 hr, individual animal): 8.57 µg/mL
Plasma concentration of Compound A ([3]; 2 hr, individual animal): 6.18 µg/mL
Plasma concentration of Compound A ([3]; 4 hr, individual animal): 3.41 µg/mL
Plasma concentration of Compound A ([3]; 6 hr, individual animal): 5.06 µg/mL
Plasma concentration of Compound A ([3]; 24 hr, individual animal): 0.02 µg/mL
suppression of retinal vascular permeability [4]: suppression of retinal vascular permeability
passage through the blood-retina barrier [5]: passes through the blood-retina barrier
concentration at 0.5 h ([5]; male, Crl:CD <SD>, rat, neural retina, po, 100 mg/kg, rat, oral 100 mg/kg single, 0.5 hr, average, read-out: Neural retina concentration of Compound A, Average): 3740 ng/mL
concentration at 0.5 h ([5]; male, Crl:CD <SD>, rat, neural retina, po, 100 mg/kg, rat, oral 100 mg/kg single, 0.5 hr, individual eye, read-out: Neural retina concentration of Compound A): 2960 ng/mL
concentration at 1 h ([5]; male, Crl:CD <SD>, rat, neural retina, po, 100 mg/kg, rat, oral 100 mg/kg single, 1 hr, average, read-out: Neural retina concentration of Compound A, Average): 3860 ng/mL
concentration at 1 h ([5]; male, Crl:CD <SD>, rat, neural retina, po, 100 mg/kg, rat, oral 100 mg/kg single, 1 hr, individual eye, read-out: Neural retina concentration of Compound A): 3930 ng/mL
concentration at 2 h ([5]; male, Crl:CD <SD>, rat, neural retina, po, 100 mg/kg, rat, oral 100 mg/kg single, 2 hr, average, read-out: Neural retina concentration of Compound A, Average): 2720 ng/mL
concentration at 2 h ([5]; male, Crl:CD <SD>, rat, neural retina, po, 100 mg/kg, rat, oral 100 mg/kg single, 2 hr, individual eye, read-out: Neural retina concentration of Compound A): 2660 ng/mL
concentration at 4 h ([5]; male, Crl:CD <SD>, rat, neural retina, po, 100 mg/kg, rat, oral 100 mg/kg single, 4 hr, average, read-out: Neural retina concentration of Compound A, Average): 2390 ng/mL
concentration at 4 h ([5]; male, Crl:CD <SD>, rat, neural retina, po, 100 mg/kg, rat, oral 100 mg/kg single, 4 hr, individual eye, read-out: Neural retina concentration of Compound A): 2300 ng/mL
concentration at 6 h ([5]; male, Crl:CD <SD>, rat, neural retina, po, 100 mg/kg, rat, oral 100 mg/kg single, 6 hr, average, read-out: Neural retina concentration of Compound A, Average): 1920 ng/mL
Neural retina concentration of Compound A ([5]; rat, oral 100 mg/kg single, 0.5 hr, individual eye, 100 mg/kg): 4.42 µg/mL and 4.89 µg/mL and 2.70 µg/mL
Neural retina concentration of Compound A ([5]; rat, oral 100 mg/kg single, 1 hr, individual eye, 100 mg/kg): 4.48 µg/mL and 3.24 µg/mL and 3.80 µg/mL
Neural retina concentration of Compound A ([5]; rat, oral 100 mg/kg single, 2 hr, individual eye, 100 mg/kg): 2.12 µg/mL and 3.38 µg/mL
Neural retina concentration of Compound A ([5]; rat, oral 100 mg/kg single, 4 hr, individual eye, 100 mg/kg): 2.54 µg/mL and 2.29 µg/mL and 2.43 µg/mL
Neural retina concentration of Compound A ([5]; rat, oral 100 mg/kg single, 6 hr, individual eye, 100 mg/kg): 2.90 µg/mL and 2.24 µg/mL and 1.05 µg/mL and 1.47 µg/mL
Neural retina concentration of Compound A ([5]; rat, oral 100 mg/kg single, 24 hr, individual eye): BLQ (Below the lower limit of quantification (ca. 0.16 μg/g))
